# Test results as given in patent US20180071367A1, “METHODS OF TREATING COGNITIVE IMPAIRMENTS OR DYSFUNCTION” (Oxeia Biopharmaceuticals, Inc., priority 2015, published 2018).
# Where no end group is shown, it is not given here. The star is where a group is joined. Octanoyl = CCCCCCCC(=O)*
# Experiments:
# [1] = tested on: oxidative burst in inflammatory cells; experiment: Oxidative burst (ROS) in inflammatory cells from brain tissue after mild brain injury (controlled cortical impact); type: in vivo; settings: C57/B6 mice, mild BI by controlled cortical impactor, subcutaneous treatment, leukocytes isolated from brain tissue, DHR 123 flow cytometry, compared to mBI
# Description: Ghrelin variant administration reduces oxidative burst in inflammatory cells following mild BI. Since no well-accepted animal model exists for concussions, a very small cerebral lesion that closely mimics mild BI is used as a model of mild BI. C57/B6 mice anesthetized with 5% isoflurane in oxygen (1.7 L/min) are given 0.3 mg/kg buprenorphine subcutaneously for analgesia prior to infliction of the mild brain injury. Anesthesia is assessed by paw pinch reflex. After creating a burr hole through the dura with a dental drill, a lesion using a controlled cortical impactor (CCI) is used to create injury 1 mm lateral and posterior to the bregma (5.0 mm/sec at a depth of 1.0 mm).
# Animals are separated into three treatment groups: 1) Sham, 2) mild BI, and 3) mild BI plus ghrelin variant. A variety of doses can be tested depending upon the particular ghrelin variant. For example, 1 to 50 μg at one or more time points. As one example, treatment with subcutaneous ghrelin variant: 1 dose of 10 μg following mild BI and additional dose 10 μg 1 hour after. […] The fluorescence is then measured (AFU), higher intensity means greater oxidative burst and, therefore greater concentration or amount of ROS. […] Oxidative burst, which is a marker for ROS, can be measured by respiratory burst using flow cytometry (e.g., FL1 channel with 488-nm laser).
# GHS-R = GHS-R (Homo sapiens, UniProt Q92847); experiment: GHS-R antagonist activity, cell based assay (Table 3); settings: GHS-R antagonist activity in a cell based assay
# GHS-R, sequence (Q92847 whole entry): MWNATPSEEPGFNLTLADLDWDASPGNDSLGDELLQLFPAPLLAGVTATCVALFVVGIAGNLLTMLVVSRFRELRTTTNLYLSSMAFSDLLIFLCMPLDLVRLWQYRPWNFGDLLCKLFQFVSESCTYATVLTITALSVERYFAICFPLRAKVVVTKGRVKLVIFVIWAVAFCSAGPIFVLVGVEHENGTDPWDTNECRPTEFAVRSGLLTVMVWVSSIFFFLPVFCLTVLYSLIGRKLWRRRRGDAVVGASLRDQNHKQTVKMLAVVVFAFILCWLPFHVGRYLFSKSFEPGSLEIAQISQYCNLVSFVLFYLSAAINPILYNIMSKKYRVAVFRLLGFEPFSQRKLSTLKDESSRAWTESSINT
Molecule,"oxidative burst in inflammatory cells following mBI, quantified by arbitrary fluorescence unit (AFU) [1]",Ki (GHS-R) [nM]
ghrelin (GSS(Octanoyl)FLSPEHQRVQQRKESKKPPAKLQPR),reduced the oxidative burst compared to mBI,–
CCN(CC)CCCS(=O)(=O)N[C@H](CCc1ccccc1)c1nc(-c2cncn2C)n[nH]1 [Compound 135],–,< 100
